Measurements as given in patent EP4332093A1, “SALT CONTAINING PIPERAZINE POLYCYCLIC DERIVATIVE, CRYSTAL FORM THEREOF, PREPARATION METHOD THEREFOR, AND USE THEREOF” (Shanghai Hansoh Biomedical Co., Ltd., priority 2021, dated 2022).
Where two headings read alike, the source gives them in different places. Values belong to the compound of their own block, whether it stands above or below them.

How the values were obtained:
[1] = Solid stability experiment of crystal forms of salt (5 and 10 days); format: physicochemical
Experimental: About 1 mg of different crystal forms of salt were taken and placed under the conditions of light 5000lx, high temperature 60°C, high humidity 92.5%RH, high temperature and high humidity 50°C 75%RH for 5 days and 10 days. The salt content was determined by HPLC and external standard method, and the change of relevant substances was calculated by chromatographic peak area normalization method.

5-HT2A receptor [2] = molecular target: T1, 5-HT2A receptor (Homo sapiens, UniProt P28223); experiment: Radioligand binding assay, 5-HT2A receptor ([3H]-Ketanserin); set-up: purchased PerkinElmer; conditions: Human 5-HT2A Receptor membrane, [3H]-Ketanserin 2 nM; read-out: 5HT-2A Binding IC50
Experimental: Determination of the binding ability of the compounds of the
present invention to 5-HT2A receptor
The objective of this test example is to determine the affinity of the compounds for 5-HT2A receptor.
Experimental buffer: 50 mM Tris-HCl pH 7.4, 4 mM CaCl2; washing liquor: 50 mM Tris-HCl pH 7.4, stored at 4°C; 0.5% PEI solution: 0.5 g PEI dissolved in 100 mL ddH2O, 4°C storage of spare.
5 µL of the test compounds (0.005 nM to 100 nM, 10 concentrations in total) and 100 µL of buffer were added to a 96-well assay plate. 1.5 µL of cell membrane and 300 µL of buffer were added to each well, and the plate was shaken at 600 rpm for 5 minutes. 100 µL of a mixed solution of buffer and [^3H]-Ketanserin (final concentration of 2 nM) was added to the reaction system per well, and the plate was shaken at 600 rpm for 5 minutes and incubated at 27°C for 30 min. The […]-96 GF/B filter plate pre-incubated with 0.5% PEI for 1 h was washed twice with the buffer (1 mL/well). The cell membrane suspension was added to the […]-96 GF/B filter plate, washed 4 times, and incubated at 55°C for 10 min. 40 µL of ULTIMA GOLD was added to each well, and liquid scintillation counting was carried out.
(§1) The CPM (Counts per minute) values were determined by TopCount. […] The 10 concentrations of the compound were from 100 nM to 0.005 nM after 3-fold dilution of the reaction system. The percent inhibition rate and ten-point concentration data were fitted to the parametric nonlinear logistic equation by using GraphPad prism to calculate the IC50 values of the compound.

dopamine D3 receptor = molecular target: T2, dopamine D3 receptor (Homo sapiens, UniProt P35462); experiment: Radioligand binding assay, dopamine D3 receptor ([3H]-methylspiperone); conditions: Human Dopamine D3 Receptor membrane, [3H]-methylspiperone 0.5 nM
T2 construct: purchased PerkinElmer ES-173-M400UA
Experimental: Determination of the binding ability of the compounds of the present invention to dopamine D3 receptor
The objective of this test example is to determine the affinity of the compounds for dopamine D3 receptor.
Experimental buffer: 50 mM Tris-HCl pH 7.4, 10 mm MgCl2; washing liquor: 50 mM Tris-HCl pH 7.4, stored at 4°C; 0.5% PEI solution: 0.5 g PEI dissolved in 100 mL ddH2O, 4°C storage of spare.
5 µL of the test compounds (0.005 nM to 100 nM, 10 concentrations in total) and 100 µL of buffer were added to a 96-well assay plate. 1 µL of cell membrane and 300 µL of buffer were added to each well, and the plate was shaken at 600 rpm for 5 minutes. 100 µL of a mixed solution of buffer and [^3H]-methylspiperone (final concentration of 0.5 nM) was added to the reaction system per well, and the plate was shaken at 600 rpm for 5 minutes and incubated at 27°C for 30 min. The UNIFII,TER-96 GF/B filter plate pre-incubated with 0.5% PEI for 1 h was washed twice with the buffer (1 mL/well). The cell membrane suspension was added to the […]-96 GF/B filter plate, washed 4 times, and incubated at 55°C for 10 min. 40 µL of ULTIMA GOLD was added to each well, and liquid scintillation counting was carried out.
as §1

D3 receptor = molecular target: T3, D3 receptor (Homo sapiens, UniProt P35462); experiment: cAMP content in cells stably expressing D3 receptors (CHO-D3, forskolin, HTRF); format: cell-based
T3 construct: expressed in transfected cells
Experimental: Determination of the effect of the compounds of the present invention on cAMP content in cells stably expressing D3 receptors
To determine the activation effect of the compounds on D3 receptor.
• 1. Preparation of the buffer: 1* HBSS + 20mM HEPES + 0.1% BSA + 500 µM IBMX. Complete medium: Ham's F12K + 10% fetal bovine serum +1* penicillin-streptomycin + 400 µg/mL G418. • 2. CHO-D3 cells were cultured in the complete medium at 37°C, 5% CO2. After TrypLE digestion, the cells were resuspended in the experimental buffer, and seeded into a 384-well cell culture plate at a seeding density of 8000 cells per well. • 3. The experimental buffer (1*HBSS, 0.1% BSA, 20 mM HEPES and 500 µM IBMX) was prepared. The compound was diluted with the buffer. 2.5 µL of the compound solution was added to each well, and the plate was incubated at 37°C for 10 minutes. The forskolin was diluted to 8 µM (8*) with the experimental buffer. 2.5 µL of the diluted 8* forskolin was added, and the plate was incubated at 37°C for 30 minutes. cAMP-d2 and Anti-cAMP-Eu^3+ were thawed, and diluted by 20-fold with the lysis buffer. 10 µL of cAMP-d2 was added to the experimental well, followed by the addition of 10 µL of Anti-cAMP-Eu^3+. The reaction plate was centrifuged at 200 g for 30 s at room temperature, and left to stand at 25°C for 1 h. Data was collected using Envision.

5-HT2A receptor [3] = molecular target: T1, 5-HT2A receptor; experiment: Calcium ion mobility in cells stably expressing 5-HT2A receptors (Flp-In-CHO-5HT2A, FLIPR); format: cell-based; set-up: expressed in transfected cells; conditions: Flp-In-CHO-5HT2A stable pool, 5HT stimulation
Experimental: Determination of the effect of the compounds of the present invention on calcium ion mobility in cells stably expressing 5-HT2A receptors
To determine the inhibitory effect of the compounds on 5-HT2A receptor.
• 1) Preparation of the buffer: 1 x HBSS, 20 mM HEPES, 2.5 mM probenecid (probenecid was 400 mM stock in 1 M NaOH), 0.1% BSA. Probenecid and BSA were added fresh on the day of the experiment. Experimental buffers include dye buffer and compound dilution buffer. • 2) Cell culture medium: Ham's F-12K + 10% fetal bovine serum + 600 µg/ml hygromycin B + 1* penicillin-streptomycin. Seeding medium: Ham's F-12K + 10% dialysis serum; Assay buffer: 1 x HBSS + 20 mM HEPES; Cell line: Flp-In-CHO-5HT2A stable pool. • 3) The cells were cultured in the complete medium at 37°C, 5% CO2 to 70%-90% confluency. The cells were digested with TrypLE, seeded to the 384-well assay plate at a density of 1 × 10^4 cells/well, and incubated for 16 to 24 hours (at least overnight). • 4) 20X Component A was thawed to room temperature, diluted to 2X working concentration (containing 5mM Probenecid) with the assay buffer, and placed at room temperature for later use. • 5) The cell culture plate was taken out and left to stand at room temperature for 10 min. […] 10 µl of diluted 5HT was add to each experimental well using FLIPR Tetra, and the values were read.
The calcium signal values were determined by FLIPR. The calculated output for each sampling time point in the experiment was the ratio of the 340/510 nm wavelength signals to 380/510 nm wavelength signals. The maximum minus minimum calculation was derived from the ratio signal curve. The percent inhibition rate and ten-point concentration data were fitted to the parametric nonlinear logistic equation by using GraphPad prism to calculate the IC50 values of the compound.

[4] = Pharmacokinetic assay in Balb/c mice (plasma and brain tissue); format: in vivo; conditions: male, mouse, po, p.o. 5 mg/kg; for AUC(0-t): read-out: Area under curve AUC0-t; for Tmax: read-out: Peak time tmax; for Cmax: read-out: Plasma concentration Cmax
Experimental: Balb/c mice were used as test animals. The pharmacokinetic behavior in mouse body (plasma and brain tissue) of the compounds of Examples of the present invention was studied at an oral administration dose of 5 mg/kg.
Compounds of the Examples of the present invention, prepared by the applicant.
Male Balb/c mice (12 mice per group), purchased from Shanghai Jiesijie Laboratory Animal Co., LTD, with Certificate No.: SCXK (Shanghai) 2013-0006 N0.311620400001794.
The test compound was dissolved in 0.5% CMC-Na (1% Tween80) by sonication to formulate a clear solution or homogeneous suspension.
After an overnight fast, male Balb/c mice (12 mice per group) were administered p.o. with the test compound at an administration dose of 5 mg/kg and an administration volume of 10 mL/kg.
0.2 mL of blood was taken from the heart of the mouse before administration and at 1, 2, 4, 8 and 24 hours after administration, and the mice were sacrificed with CO2. The samples were stored in EDTA-K2 tubes, and centrifuged for 6 minutes at 4°C, 6000 rpm to separate the plasma. The plasma samples were stored at -80°C. Whole brain tissue was taken out, weighed, placed in a 2 mL centrifuge tube, and stored at -80°C.
• 1) 160 µL of acetonitrile was added to 40 µL of the plasma sample for precipitation, and then the mixture was centrifuged for 5 to 20 minutes at 3500 × g. • 2) 90 µL of acetonitrile containing internal standard (100 ng/mL) was added to 30 µL of the plasma and brain homogenate sample for precipitation, and then the mixture was centrifuged for 8 minutes at 13000 rpm. • 3) 70 µL of water was added to 70 µL of the treated supernatant and mixed by vortex for 10 minutes. 20 µL of the supernatant was taken to analyze the concentration of the test compound by LC/MS/MS. LC/MS/MS analytical instrument: AB Sciex API 4000 Qtrap.
• Liquid chromatography condition: Shimadzu LC-20AD pump • Chromatographic column: Agilent ZORBAX XDB-C18 (50×2.1 mm, 3.5 µm); Mobile phase: Eluent A was 0.1% formic acid in water, and Eluent B was acetonitrile • Flow rate: 0.4 mL/min • Elution time: 0-4.0 minutes, the eluent is as follows:
The main parameters of pharmacokinetics were calculated by WinNonlin 6.1. Table 17: Experimental results of pharmacokinetic assay in mice

[5] = High humidity (92.5% RH), 5 Days
[6] = High humidity (92.5% RH), 10 Days
[7] = High temperature (60°C), 5 Days
[8] = High temperature (60°C), 10 Days
[9] = High temperature and high humidity (50°C 75%RH), 5 Days
[10] = High temperature and high humidity (50°C 75%RH), 10 Days

T1 sequence (P28223 whole entry): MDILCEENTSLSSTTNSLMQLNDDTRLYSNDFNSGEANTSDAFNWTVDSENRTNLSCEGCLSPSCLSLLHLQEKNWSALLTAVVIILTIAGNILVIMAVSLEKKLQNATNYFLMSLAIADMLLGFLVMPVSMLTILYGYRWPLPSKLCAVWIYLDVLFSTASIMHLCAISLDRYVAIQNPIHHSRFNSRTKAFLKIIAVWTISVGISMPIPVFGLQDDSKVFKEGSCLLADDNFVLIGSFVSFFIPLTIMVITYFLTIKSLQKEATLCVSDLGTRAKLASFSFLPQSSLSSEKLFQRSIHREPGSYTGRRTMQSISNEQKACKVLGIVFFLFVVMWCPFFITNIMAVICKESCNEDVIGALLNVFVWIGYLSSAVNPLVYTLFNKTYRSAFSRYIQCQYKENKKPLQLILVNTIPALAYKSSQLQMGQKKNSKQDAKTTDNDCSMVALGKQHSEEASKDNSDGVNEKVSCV
T2 sequence (P35462 whole entry): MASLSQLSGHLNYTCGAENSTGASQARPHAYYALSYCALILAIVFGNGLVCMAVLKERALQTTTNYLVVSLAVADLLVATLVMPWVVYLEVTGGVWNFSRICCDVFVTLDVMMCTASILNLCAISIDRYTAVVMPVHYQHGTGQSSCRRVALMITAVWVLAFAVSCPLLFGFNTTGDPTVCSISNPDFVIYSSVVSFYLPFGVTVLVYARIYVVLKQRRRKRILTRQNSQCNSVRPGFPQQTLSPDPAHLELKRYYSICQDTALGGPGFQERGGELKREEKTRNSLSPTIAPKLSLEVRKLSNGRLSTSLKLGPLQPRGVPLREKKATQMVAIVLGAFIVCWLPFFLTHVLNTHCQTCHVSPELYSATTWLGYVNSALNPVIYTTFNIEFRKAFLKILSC
T3 sequence (P35462 whole entry): as above

SMILES: O=C(N[C@H]1C[C@H](CCN2CCN(c3cccc(Cl)c3Cl)CC2)C1)c1ncco1 [Crystal form A of hydrochl oride]
Maximum single impurity increase% [1, 5]: 0.06%
Total impurity increase% [1, 5]: 0.06%
Maximum single impurity increase% [1, 6]: <0.02%
Total impurity increase% [1, 6]: <0.02%
Maximum single impurity increase% [1, 7]: <0.02%
Total impurity increase% [1, 7]: <0.02%
Maximum single impurity increase% [1, 8]: <0.02%
Total impurity increase% [1, 8]: 0.03%
Maximum single impurity increase% [1, 9]: <0.02%
Total impurity increase% [1, 9]: <0.02%
Maximum single impurity increase% [1, 10]: <0.02%
Total impurity increase% [1, 10]: <0.02%
Maximum single impurity increase% ([1]; Light (5000lx), 5 Days): <0.02%
Total impurity increase% ([1]; Light (5000lx), 5 Days): <0.02%
Maximum single impurity increase% ([1]; Light (5000lx), 10 Days): <0.02%
Total impurity increase% ([1]; Light (5000lx), 10 Days): <0.02%

SMILES: O=C(N[C@H]1C[C@H](CCN2CCN(c3cccc(Cl)c3Cl)CC2)C1)c1ncco1 [Crystal form B of p-toluene sulfonate]
Maximum single impurity increase% [1, 5]: <0.02%
Total impurity increase% [1, 5]: <0.02%
Total impurity increase% [1, 8]: <0.02%
Maximum single impurity increase% ([1]; Light (5000lx), 5 Days): 0.13%
Total impurity increase% ([1]; Light (5000lx), 5 Days): 0.03%
Maximum single impurity increase% ([1]; Light (5000lx), 10 Days): 0.13%
Total impurity increase% ([1]; Light (5000lx), 10 Days): 0.19%

IC50 (5-HT2A receptor [2]): 44 nM
IC50 (dopamine D3 receptor): 0.62 nM
SMILES: O=S(=O)(NC1CC(CCN2CCN(c3cccc(Cl)c3Cl)CC2)C1)C1CC1 (centres unmarked) [Example 11, N-(3-(2-(4-(2,3-Dichlorophenyl)piperazin-1-yl)ethyl)cyclobutyl)cyclopropanesulfon amide]

SMILES: O=C(N[C@H]1C[C@H](CCN2CCN(c3cccc(Cl)c3Cl)CC2)C1)c1ncco1 [crystal form B of p-toluenesulfonate]
crystal form stability (single impurity) ([1]; light conditions (5000lx)): single impurity increases significantly
crystal form stability ([1]; other conditions (60°C, 92.5% RH, 50°C 75% RH)): stable

EC50 (D3 receptor): 2.8 nM
IC50 (5-HT2A receptor [3]): 6.44 nM
AUC(0-t) ([4]; Brain): 2080 ng·h/mL
Tmax ([4]; Brain): 1 h
Cmax ([4]; Brain): 569 ng/mL
AUC(0-t) ([4]; Plasma): 503 ng·h/mL
AUC(0-inf) ([4]; Plasma, read-out: Area under curve AUC0-∞): 541 ng·h/mL
MRT ([4]; Plasma, read-out: Average residence time MRT): 2.8 h
half-life ([4]; Plasma, read-out: Half life t1/2 (converted)): 2.1 h
Tmax ([4]; Plasma): 0.5 h
Cmax ([4]; Plasma): 254 ng/mL
SMILES: O=C(NC1CC(CCN2CCN(c3cccc(Cl)c3Cl)CC2)C1)c1nccs1 (centres unmarked) [Example 7, N-(3-(2-(4-(2,3-Dichlorophenyl)piperazin-1-yl)ethyl)cyclobutyl)thiazole-2-carboxamide]
